Read-outs that look alike come from different tables or passages of the source. Bounds are passed on as bounds.

One series concerns influenza. The conditions noted are these: oral monotherapy taken at time of diagnosis; cited from earlier work.
Series [1] concerns the target WT enzyme (PAN endonuclease). On the set-up: method as in PMID 31536340. The conditions noted are these: FRET-based assay, cited from earlier work.
The format of series [2] is physicochemical. Conditions: at 1000 μM in DSF buffer with 4 % DMSO.
Where [3] appears, read: read-out: pIC50 values (converted).
The mark [4] stands for this setting: at edge of limit of detection, read-out: IC50 values.

`COC(=O)OCOc1c2n(ccc1=O)N([C@@H]1c3ccccc3SCc3c1ccc(F)c3F)[C@@H]1COCCN1C2=O` [BXM, Baloxavir marboxil]: the “time to reduce fever (average)” value in the series with influenza was 24 h.

In the case of `Cc1ccccc1-c1cc(=O)c(O)c(C(=O)O)[nH]1` [Compound 1], the IC50 in series [1] (setting [3]) is less than 2 nM.

Take `CSc1ccccc1-c1cc(=O)c(O)c(C(=O)O)[nH]1` [Compound 3]: the IC50 in series [1] (setting [4]) is approximately 3 nM.

As to `CCc1ccccc1-c1cc(=O)c(O)c(C(=O)O)[nH]1` [Compound 2], in series [1] (setting [3]), the IC50 was less than 2 nM.

For the compound `O=C(O)c1[nH]c(-c2ccccc2Oc2ccccc2)cc(=O)c1O` [Compound 4], the IC50 in series [1] (setting [4]) is approximately 3 nM. The solubility result in series [2] is listed as “poorly soluble”.

The record behind these values is article PMC13298843, “Substituent size versus metal binding of inhibitors with variants of influenza endonuclease^” (Journal of inorganic biochemistry, 2025).
